Legend:
Mu-type opioid receptor [1] = target: T1, Mu-type opioid receptor (Homo sapiens, UniProt P35372); assay: Displacement of [3H]-DAMGO from human MOR expressed in CHOK1 cell membranes incubated for 60 mins by liquid scintillation counting method; design: species or system CHO-K1, Cell membrane
Mu-type opioid receptor [2] = target: T1, Mu-type opioid receptor; assay: Displacement of [3H]-DAMGO from human MOR expressed in CHOK1 cell membranes at 1 uM incubated for 60 mins by liquid scintillation counting method; details: CHO-K1, Cell membrane
[3] = target: T2, Sigma non-opioid intracellular receptor 1 (Homo sapiens, UniProt Q99720); assay: Displacement of 3H](+)-pentazocine from human sigma1 receptor expressed in HEK293 cell membranes incubated for 120 mins by liquid scintillation counting method; design: species or system Cell membrane
[4] = target: T3, Alpha-1A adrenergic receptor (Homo sapiens) (UniProt P35348); assay: Binding affinity to human alpha1A adrenoreceptor expressed in membranes assessed as inhibition of [3H]-prazosin binding incubated for 90 mins by scintillation counting method; design: concentration or dose not given beside the values; details: Cell membrane
T3 sequence (whole entry): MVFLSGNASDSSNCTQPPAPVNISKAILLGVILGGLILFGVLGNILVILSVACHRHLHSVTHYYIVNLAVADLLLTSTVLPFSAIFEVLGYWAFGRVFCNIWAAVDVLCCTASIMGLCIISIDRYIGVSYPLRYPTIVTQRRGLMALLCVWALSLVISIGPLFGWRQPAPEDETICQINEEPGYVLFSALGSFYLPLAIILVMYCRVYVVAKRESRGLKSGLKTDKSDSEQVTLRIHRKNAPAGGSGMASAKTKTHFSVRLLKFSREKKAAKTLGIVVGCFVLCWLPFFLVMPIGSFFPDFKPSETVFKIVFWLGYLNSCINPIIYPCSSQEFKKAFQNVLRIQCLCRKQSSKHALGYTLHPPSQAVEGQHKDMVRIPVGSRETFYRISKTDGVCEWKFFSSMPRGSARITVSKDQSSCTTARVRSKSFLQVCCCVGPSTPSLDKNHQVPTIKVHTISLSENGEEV

Mu-type opioid receptor [5] = target: T1, Mu-type opioid receptor; assay: Agonist activity at human MOR expressed in CHOK1 cells assessed as […] of cAMP accumulation at 1 uM incubated for 45 mins by HTRF assay; format: functional, cell-based; details: CHO-K1
Mu-type opioid receptor [6] = target: T1, Mu-type opioid receptor; assay: Agonist activity at human MOR expressed in CHOK1 cells assessed as […] of cAMP accumulation incubated for 45 mins by HTRF assay; format: functional, cell-based, CHO-K1
[7] = target: Voltage-gated inwardly rectifying potassium channel KCNH2 (Homo sapiens, UniProt Q12809)
Description: Inhibition of human ERG expressed in CHO cells at -80 mV holding potential by whole cell patch clamp assay

Mu-type opioid receptor [8] = target: T1, Mu-type opioid receptor; assay: Agonist activity at human MOR expressed in CHOK1 cells assessed as […] of cAMP accumulation incubated for 45 mins by HTRF assay relative to DAMGO; format: functional, cell-based; details: CHO-K1, filed as agonist
Mu-type opioid receptor [9] = target: T1, Mu-type opioid receptor; assay: Displacement of [3H]-DAMGO from human MOR expressed in CHOK1 cell membranes at 10 uM incubated for 60 mins by liquid scintillation counting method; details: CHO-K1, Cell membrane
hERG (KCNH2) = hERG (KCNH2) (Homo sapiens, UniProt Q12809); assay: Inhibition of human ERG expressed in CHO cells at 10 uM at -80 mV holding potential by whole cell patch clamp assay; format: cell-based; details: CHO cells expressing human ERG
Mu-type opioid receptor [10] = target: T1, Mu-type opioid receptor; assay: Agonist activity at human MOR expressed in CHOK1 cells assessed as […] of cAMP accumulation at 10 uM incubated for 45 mins by HTRF assay; format: functional, cell-based; details: CHO-K1
Mus musculus = assay: Antinociceptive activity in CD1 mouse PSNL model assessed as reduction in mechanical allodynia by measuring decrease in the pressure required to elicit withdrawal of the ipsilateral paw after von Frey filament stimulation at 1.25 mg/kg, ip BID for 11 days from day 13 to day 22; format: functional; details: 264 h, time 11 day
[11] = target: T2, Sigma non-opioid intracellular receptor 1; assay: Displacement of 3H](+)-pentazocine from human sigma1 receptor expressed in HEK293 cell membranes at 10 uM incubated for 120 mins by liquid scintillation counting method; details: Cell membrane
[12] = Toxicity in CD1 mouse assessed as inhibition of intestinal transit by measuring percentage of distance traveled by charcoal meal at 20 mg/kg, po; format: organism-based; details: in vivo

T1 sequence (P35372 whole entry): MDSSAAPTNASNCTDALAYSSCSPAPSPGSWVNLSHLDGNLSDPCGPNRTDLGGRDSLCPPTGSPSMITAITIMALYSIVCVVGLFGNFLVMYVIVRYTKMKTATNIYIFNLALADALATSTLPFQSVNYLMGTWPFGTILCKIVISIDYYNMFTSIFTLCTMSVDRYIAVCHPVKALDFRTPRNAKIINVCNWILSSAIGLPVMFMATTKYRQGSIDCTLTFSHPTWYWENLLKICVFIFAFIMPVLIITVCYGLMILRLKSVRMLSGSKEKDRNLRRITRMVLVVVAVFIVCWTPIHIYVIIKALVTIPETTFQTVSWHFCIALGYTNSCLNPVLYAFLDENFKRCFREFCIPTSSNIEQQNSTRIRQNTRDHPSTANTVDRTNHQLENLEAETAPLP
Sequence of Voltage-gated inwardly rectifying potassium channel KCNH2 (Q12809 whole entry): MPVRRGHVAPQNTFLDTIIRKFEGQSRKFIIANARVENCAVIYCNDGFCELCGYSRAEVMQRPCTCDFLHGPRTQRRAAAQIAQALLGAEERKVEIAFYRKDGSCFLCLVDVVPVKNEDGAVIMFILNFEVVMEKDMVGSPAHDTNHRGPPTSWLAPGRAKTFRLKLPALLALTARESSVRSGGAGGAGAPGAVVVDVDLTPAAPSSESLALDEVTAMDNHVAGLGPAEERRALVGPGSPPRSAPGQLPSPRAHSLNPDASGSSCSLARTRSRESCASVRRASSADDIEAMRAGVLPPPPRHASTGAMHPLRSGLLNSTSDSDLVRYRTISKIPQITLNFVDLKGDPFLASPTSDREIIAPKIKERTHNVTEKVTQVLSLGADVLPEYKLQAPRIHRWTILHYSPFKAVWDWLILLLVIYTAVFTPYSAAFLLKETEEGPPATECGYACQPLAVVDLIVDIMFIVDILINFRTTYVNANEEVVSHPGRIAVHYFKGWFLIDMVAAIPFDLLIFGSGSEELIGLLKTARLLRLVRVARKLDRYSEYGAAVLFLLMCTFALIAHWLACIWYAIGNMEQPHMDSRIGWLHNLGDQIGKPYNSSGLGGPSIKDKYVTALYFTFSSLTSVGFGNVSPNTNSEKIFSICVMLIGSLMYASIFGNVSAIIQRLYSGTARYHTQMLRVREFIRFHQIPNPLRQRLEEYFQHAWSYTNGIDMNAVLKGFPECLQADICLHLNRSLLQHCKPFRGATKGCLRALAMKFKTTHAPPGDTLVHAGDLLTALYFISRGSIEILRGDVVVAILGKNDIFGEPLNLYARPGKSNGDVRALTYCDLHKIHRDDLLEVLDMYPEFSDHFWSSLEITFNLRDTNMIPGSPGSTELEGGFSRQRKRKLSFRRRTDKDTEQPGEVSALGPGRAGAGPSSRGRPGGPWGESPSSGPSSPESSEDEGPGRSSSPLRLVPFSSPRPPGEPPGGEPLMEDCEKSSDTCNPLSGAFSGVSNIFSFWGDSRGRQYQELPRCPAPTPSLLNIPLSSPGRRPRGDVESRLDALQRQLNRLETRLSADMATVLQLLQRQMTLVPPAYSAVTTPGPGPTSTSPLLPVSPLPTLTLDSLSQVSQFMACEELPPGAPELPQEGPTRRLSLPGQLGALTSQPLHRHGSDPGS
Sequence of hERG (KCNH2) (Q12809 whole entry): as above
T2 sequence (Q99720 whole entry): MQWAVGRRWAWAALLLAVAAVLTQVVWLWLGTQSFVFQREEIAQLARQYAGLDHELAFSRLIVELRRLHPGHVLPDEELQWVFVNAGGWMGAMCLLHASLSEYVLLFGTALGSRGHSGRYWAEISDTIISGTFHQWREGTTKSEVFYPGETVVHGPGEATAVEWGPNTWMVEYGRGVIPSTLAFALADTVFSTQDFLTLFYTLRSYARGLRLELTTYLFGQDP

Row | Structure (SMILES) | Ki (Mu-type opioid receptor [1]) | inhibition (Mu-type opioid receptor [2]) | Ki [3] | inhibition [4] | inhibition (Mu-type opioid receptor [5]) | EC50 (Mu-type opioid receptor [6]) | IC50 [7] | Emax (Mu-type opioid receptor [8]) | inhibition (Mu-type opioid receptor [9]) | inhibition at 10 µM (hERG (KCNH2)) | inhibition (Mu-type opioid receptor [10]) | inhibition in vivo at 1.25 mg/kg (Mus musculus) | inhibition [11] | Activity [12]
1 | CN1CC2(CCN(CCc3ccccc3)CC2)OC(c2ccccc2)C1=O (stereo unspecified) | > 1000 nM | < 50% | 242 nM | 26% | < 50% | > 1000 nM |  |  |  |  |  |  |  | 
2 | CCN1CC2(CCN(CCc3ccccc3)CC2)O[C@H](C)C1=O | 26 nM |  | 66 nM | 14% |  | 49 nM | 4700 nM | 83% |  |  |  |  |  | 
3 | CCN1CC2(CCN(CCc3ccc(F)cc3)CC2)O[C@H](C)C1=O | 164 nM |  | 76 nM | 21% |  | 108 nM | 1500 nM | 81% |  |  |  |  |  | 
4 | CCN1CC2(CCN(CCc3ccccn3)CC2)OC2(CC2)C1=O | > 1000 nM |  | 783 nM | 0% |  | 1500 nM |  |  | < 50% |  |  |  |  | 
5 | C[C@@H]1OC2(CCN(CCc3ccccc3)CC2)CN(C)C1=O | > 1000 nM | < 50% | 165 nM | 6% |  | 1780 nM |  |  |  |  |  |  |  | 
6 | CCN1CC2(CCN(CCc3ccccc3F)CC2)O[C@H](C)C1=O | 18 nM |  | 68 nM | 15% |  | 24 nM | 4000 nM | 84% |  |  |  |  |  | 
7 | O=C1N(c2cccnc2C(F)(F)F)CC2(CCN(CCc3ccccc3F)CC2)OC12CC2 |  |  |  | 57% |  |  |  |  |  | < 50% |  |  |  | 
8 | CC(C)C1OC2(CCN(CCc3ccccc3)CC2)CN(C)C1=O (stereo unspecified) | 115 nM |  | 122 nM | 29% |  | 174 nM | 6200 nM | 85% |  |  |  |  |  | 
9 | CN1CC2(CCN(CCc3ccccc3)CC2)OC(C)(C)C1=O | > 1000 nM | < 50% | 50 nM | 37% |  | 624 nM |  |  |  |  |  |  |  | 
10 | CCN1CC2(CCN(CCc3ccc(F)cc3F)CC2)O[C@H](C)C1=O | 62 nM |  | 94 nM | 11% |  | 53 nM | 2500 nM | 92% |  |  |  |  |  | 
11 | C[C@H]1OC2(CCN(CCc3ccccc3)CC2)CN(C)C1=O | 91 nM |  | 277 nM | 19% |  | 319 nM | > 10000 nM | 83% |  | < 50% |  |  |  | 
12 | CCN1CC2(CCN(CCc3cc(F)ccc3F)CC2)O[C@@H](C)C1=O |  |  |  | 9% |  |  | > 10000 nM |  |  | < 50% |  |  |  | 
13 | CC1OC2(CCN(CCc3ccccc3)CC2)CN(C)C1=O (stereo unspecified) | 156 nM |  | 142 nM | 16% |  | 787 nM | > 10000 nM | 79% |  | < 50% |  |  |  | 
14 | CCN1CC2(CCN(CCc3cccc(F)c3F)CC2)O[C@H](C)C1=O | 22 nM |  | 556 nM | 8% |  | 10 nM | > 10000 nM | 90% |  | < 50% |  |  |  | 
15 | Cc1cc(OCCN2CCOCC2)nn1-c1ccc2ccccc2c1 |  |  |  |  |  |  |  |  | < 50% | < 50% | < 50% |  |  | 
16 | CCN1CC2(CCN(CCc3c(F)cccc3F)CC2)O[C@H](C)C1=O | 21 nM |  | 609 nM | 10% |  | 16 nM |  | 95% |  |  |  |  |  | 
17 | CC1OC2(CCN(CCc3ccccc3)CC2)CN(CCc2ccccc2)C1=O (stereo unspecified) | 20 nM |  |  | 58% |  | 22 nM | 200 nM | 94% |  |  |  |  |  | 
18 | COc1ccc2c3c1O[C@H]1C(=O)CC[C@@]4(O)[C@@H](C2)N(C)CC[C@]314 [OXYCODONE] |  |  |  |  |  |  | > 10000 nM |  |  | < 50% |  | 51% | < 50% | Toxic
19 | CN1CC2(CCN(CCc3ccccc3)CC2)OCC1=O | > 1000 nM | < 50% | 282 nM | 36% | < 50% | > 1000 nM |  |  |  |  |  |  |  | 
20 | CC1OC2(CCN(CCc3ccccc3)CC2)CN(Cc2ccccc2)C1=O (stereo unspecified) | 2 nM |  | 10 nM | 67% |  | 2 nM | 100 nM | 97% |  |  |  |  |  | 
21 | CCN1CC2(CCN(CCc3cccc(F)c3)CC2)O[C@H](C)C1=O | 56 nM |  | 64 nM | 42% |  | 56 nM |  | 83% |  |  |  |  |  | 
22 | C[C@H]1OC2(CCN(CCc3ccccc3)CC2)CN(C2CC2)C1=O | 6 nM |  |  | 51% |  | 7 nM | 4500 nM | 91% |  |  |  |  |  | 
23 | CC1OC2(CCN(CCc3ccccc3)CC2)CN(CCc2ccccc2F)C1=O (stereo unspecified) | > 1000 nM | < 50% | 892 nM | 7% | < 50% | > 1000 nM | > 10000 nM |  |  | < 50% |  |  |  | 
24 | CN1CC2(CCN(CCc3ccccc3)CC2)OC2(CC2)C1=O | 221 nM |  | 161 nM | 41% |  | 442 nM | 3600 nM | 85% |  |  |  |  |  | 
25 | CC1OC2(CCN(CCc3ccccc3)CC2)CN(C(C)C)C1=O (stereo unspecified) | 33 nM |  | 30 nM | 35% |  | 21 nM | 3900 nM | 100% |  |  |  |  |  | 
26 | CC1OC2(CCN(CCc3ccccc3)CC2)CN(c2ccccc2)C1=O (stereo unspecified) |  |  |  | 72% |  |  |  | 85% |  |  |  |  |  | 
27 | CC[C@H]1OC2(CCN(CCc3ccccc3)CC2)CN(C)C1=O | 192 nM |  | 139 nM | 13% |  | 505 nM | 6600 nM | 90% |  |  |  |  |  | 
28 | CCN1CC2(CCN(CCc3ccccc3)CC2)OC(C)C1=O (stereo unspecified) | 41 nM |  | 43 nM | 27% |  | 65 nM | 3100 nM | 84% |  |  |  |  |  | 
